Measured values taken from patent US20240301218A1, “Polymeric Antifouling Coating with Antimicrobial Peptides” (THE UNIVERSITY OF BRITISH COLUMBIA, priority 2021, published 2024).
≈ marks a conversion by molar mass, not a printed value. Read-outs that look alike come from different tables or passages of the source. Residues, ends and D or L forms follow the SMILES beside them. No end group written: not given here.

Key:
E. coli = test system: E. coli
Description: (§1) Ultra-high molecular weight poly(N,N-dimethylacrylamide) (uhPDMA) and high molecular weight poly(N,N-dimethylacrylamide) (hPDMA) were synthesized by atom transfer radical polymerization 391. N-(3-Aminopropyl) methacrylamide hydrochloride (APMA) (98%) was purchased from Polysciences™, USA and was used as supplied. All other reagents including 1, 1, 4, 7, 10, 10-hexamethyl triethylene tetramine (HMTETA) (97%), Tris[2-(dimethylamino)ethyl]amine (Me6TREN) 97%, methyl 2-chloropropionate (97%), CuCl (99%), CuCl2 (99%), 1-thioglycerol (97%) were purchased from Sigma-Aldrich™ (Oakville, ON). A single-side-polished silicon wafer (University Wafer™, Boston, MA) deposited with titanium was prepared by e-beam evaporation of titanium. The process was progressed in a home-assembled Evaporator 2000™ system equipped with a quartz crystal microbalance to monitor the film thickness and a cryo pump to reach high-vacuum (10^−7-10^−6 Torr) condition. After deposition, the substrates were washed with Milli-Q water™, dried via a nitrogen gun, and stored for further usage. SurFlash™I.V. Catheter Cat. #SR*FF1451, #SR*FF2419 (14 Gauge and 24 Gauge) made of polyurethane (PU), were purchased from Terumo™. […] Pure products were finally characterized by analytical reverse phase high performance liquid chromatography (RP-HPLC) and liquid chromatography-mass spectrometry (LC-MS). The broth microdilution method with minor modifications for cationic peptides was used for measuring the MICs of peptides.

P. aeruginosa = test system: P. aeruginosa
Description: as §1

S. aureus = test system: S. aureus
Description: as §1

S. saprophyticus = test system: S. saprophyticus
Description: as §1

P. aeruginosa (PAO1.lux) = experiment: 96-well plate screening of surface conjugated AMPs for biofilm inhibition; format: cell-based; details: AMP tethered on BA coating, polypropylene 96-well plate, vs uncoated pp
Protocol: (§2) Screening and Identification of Surface Conjugated AMPs with Anti-Biofilm Activity on a 96-Well Plate Bioluminescence-tagged bacterial strains used in this study included S. aureus (Xen36), P. aeruginosa (PAO1.lux), E. coli (E38.lux), and S. saprophyticus (ATCC 15305). Bacteria were cultured in LB, with shaking at 250 rpm, at 37° C. Bacterial growth was monitored using a spectrophotometer at the optical density of 600 nm (OD600). S. aureus Xen36 was purchased from PerkinElmer Inc.™ while P. aeruginosa PAO1.lux and E. coli E38.lux were generated by conjugating in plasmids that constitutively-expressed lux reporter genes^[40]. The biofilm inhibitory activity of AMPs conjugated onto coated polypropylene surfaces were evaluated in a static microtitre plate assay as previously described with some modifications^[41]. For all experiments, 96-well Costar™ polypropylene plates (Corning™) were used. An overnight culture of selected bacterial strains in LB was diluted to an OD600=0.01 in TSB or basal medium 2 (BM2) supplemented with 0.1% or 0.4% glucose and 0.5 mM MgSO4, (the biofilm growth medium for different bacteria is listed in TABLE 1).
(§3) For inhibition experiments, 100 μL of the diluted overnight culture was added to each well in the plate coated with control coating and AMP coating, respectively. After overnight growth under static condition at 37° C., planktonic cells were removed, adhered biomass rinsed three times with distilled water and subsequently the remaining adhered total biomass was quantified by measuring the luminescence (Total white light) using the Synergy H1™ multimode microtitre plate reader (BioTek™). The remaining adhered S. saprophyticus biomass was quantified using the crystal violet (CV) staining. Briefly, each well was added and incubated with 125 μL of 0.1% (v/v) CV solution for 30 minutes at room temperature with moderate shaking. Then, CV was discarded, and each well was rinsed three times with distilled water. The remaining CV stain was resuspended in 150 μL of 70% ethanol for 30 minutes at room temperature with moderate shaking and then quantified by measuring OD59, using the Synergy H1™ multimode microplate plate reader (BioTek™). The percent biofilm inhibition was calculated in relation to the amount of biofilm grown in the absence of the coating (defined as 100%) and the media sterility control (defined as 0% growth). The experiment was repeated 3 times with 3 technical replicates per biological replicate.

S. aureus (Xen36) = experiment: as above; format: cell-based; details: AMP tethered on BA coating, polypropylene 96-well plate, vs uncoated pp
Protocol: as §2, §3

[1] = test system: S. saprophyticus (ATCC 15305); experiment: as above; format: cell-based; details: AMP tethered on BA coating, polypropylene 96-well plate, 24 h, vs uncoated pp
Protocol: as §2, §3

| Molecule | MIC E. coli (E. coli) | MIC P. aeruginosa (P. aeruginosa) | MIC S. aureus (S. aureus) | MIC S. saprophyticus (S. saprophyticus) | reduction of biofilm formation (P. aeruginosa (PAO1.lux)) | reduction of biofilm formation (S. aureus (Xen36)) | reduction of biofilm formation [1] | MIC E. coli (E. coli; soluble peptide) | MIC P. aeruginosa (P. aeruginosa; soluble peptide) | MIC S. aureus (S. aureus; soluble peptide) | MIC S. saprophyticus (S. saprophyticus; soluble peptide) |
| --- | --- | --- | --- | --- | --- | --- | --- | --- | --- | --- | --- |
| CC[C@@H](C)[C@@H](NC(=O)[C@@H](C)NC(=O)[C@@H](CCCNC(=N)N)NC(=O)[C@@H](Cc1c[nH]c2ccccc12)NC(=O)[C@@H](CCC(N)=O)NC(=O)[C@H](N)C(C)C)C(=O)N[C@H](CCCNC(=N)N)C(=O)N[C@@H](C(=O)N[C@H](CCCNC(=N)N)C(=O)N[C@@H](C(=O)N[C@@H](C(=O)N[C@H](CCCNC(=N)N)C(=O)N[C@H](CS)C(N)=O)[C@H](C)CC)C(C)C)C(C)C [DJK5C, vqwrairvrvirc-NH2] (HELM PEPTIDE1{[dV].[dQ].[dW].[dR].[dA].[dI].[dR].[dV].[dR].[dV].[dI].[dR].[dC].[am]}$$$$V2.0; N-terminus assumed) | 4 µg/mL (≈ 2.42 µM) | 16 µg/mL (≈ 9.67 µM) | 16 µg/mL (≈ 9.67 µM) | 2 µg/mL (≈ 1.21 µM) | 99.1% | 95.1% | ~100% | – | – | – | – |
| vqwrrirvwvir (VQWRRIRVWVIR; HELM PEPTIDE1{[dV].[dQ].[dW].[dR].[dR].[dI].[dR].[dV].[dW].[dV].[dI].[dR].[am]}$$$$V2.0; N-terminus assumed; SMILES CC[C@@H](C)[C@@H](NC(=O)[C@@H](CCCNC(=N)N)NC(=O)[C@@H](CCCNC(=N)N)NC(=O)[C@@H](Cc1c[nH]c2ccccc12)NC(=O)[C@@H](CCC(N)=O)NC(=O)[C@H](N)C(C)C)C(=O)N[C@H](CCCNC(=N)N)C(=O)N[C@@H](C(=O)N[C@H](Cc1c[nH]c2ccccc12)C(=O)N[C@@H](C(=O)N[C@@H](C(=O)N[C@H](CCCNC(=N)N)C(N)=O)[C@H](C)CC)C(C)C)C(C)C) [DJK6] | – | – | – | – | 58.8% | – | 83.5% | – | – | – | – |
| CC[C@H](C)[C@H](NC(=O)[C@H](CCCNC(=N)N)NC(=O)[C@H](Cc1c[nH]c2ccccc12)NC(=O)[C@H](CCCNC(=N)N)NC(=O)[C@@H](N)CCCCN)C(=O)N[C@@H](CCCNC(=N)N)C(=O)N[C@H](C(=O)N[C@@H](CCCNC(=N)N)C(=O)N[C@H](C(=O)N[C@H](C(=O)N[C@@H](CCCNC(=N)N)C(=O)N[C@@H](CCCCN)C(=O)NCCC(=O)NCCC(=O)N[C@@H](CS)C(N)=O)[C@@H](C)CC)C(C)C)C(C)C [Tet20LC, KRWRIRVRVIRK-bA-bA-C—NH2] (HELM PEPTIDE1{K.R.W.R.I.R.V.R.V.I.R.K.[bAla].[bAla].C.[am]}$$$$V2.0; N-terminus assumed) | 4 µg/mL (≈ 2.09 µM) | 16 µg/mL (≈ 8.38 µM) | 64 µg/mL (≈ 33.5 µM) | 2 µg/mL (≈ 1.05 µM) | 100% | 100% | ~100% | – | – | – | – |
| rivrvrairwqv (RIVRVRAIRWQV; HELM PEPTIDE1{[dR].[dI].[dV].[dR].[dV].[dR].[dA].[dI].[dR].[dW].[dQ].[dV].[am]}$$$$V2.0; N-terminus assumed; SMILES CC[C@@H](C)[C@@H](NC(=O)[C@H](N)CCCNC(=N)N)C(=O)N[C@@H](C(=O)N[C@H](CCCNC(=N)N)C(=O)N[C@@H](C(=O)N[C@H](CCCNC(=N)N)C(=O)N[C@H](C)C(=O)N[C@@H](C(=O)N[C@H](CCCNC(=N)N)C(=O)N[C@H](Cc1c[nH]c2ccccc12)C(=O)N[C@H](CCC(N)=O)C(=O)N[C@@H](C(N)=O)C(C)C)[C@H](C)CC)C(C)C)C(C)C) [RI-DJK5] | – | – | – | – | 76.2% | – | – | – | – | – | – |
| ILVRWIRWRIQWC-NH2 [3002C, ILVRWIRWRIQWC-NH2] | 16 µg/mL | 128 µg/mL | 32 µg/mL | 8 µg/mL | 32.4% | 93.6% | – | – | – | – | – |
| VRLIVAVRIWRR-NH2 [IDR-1018, VRLIVAVRIWRR-NH2] | – | – | – | – | 83.2% | 93.5% | 82.2% | 9.3 µg/mL | 64 µg/mL | 16 µg/mL | 2 µg/mL |
| KRWRIRVRVIRKC-NH2 [Tet20C, KRWRIRVRVIRKC-NH2] | 4 µg/mL | 8 µg/mL | 64 µg/mL | 2 µg/mL | 99.6% | 98.8% | ~100% | – | – | – | – |
| CC[C@@H](C)[C@@H](NC(=O)[C@@H](C)NC(=O)[C@@H](CCCNC(=N)N)NC(=O)[C@@H](Cc1c[nH]c2ccccc12)NC(=O)[C@@H](CCC(N)=O)NC(=O)[C@H](N)C(C)C)C(=O)N[C@H](CCCNC(=N)N)C(=O)N[C@@H](C(=O)N[C@H](CCCNC(=N)N)C(=O)N[C@@H](C(=O)N[C@@H](C(=O)N[C@H](CCCNC(=N)N)C(N)=O)[C@H](C)CC)C(C)C)C(C)C [DJK5, vqwrairvrvir] (HELM PEPTIDE1{[dV].[dQ].[dW].[dR].[dA].[dI].[dR].[dV].[dR].[dV].[dI].[dR].[am]}$$$$V2.0; N-terminus assumed) | 1.6 µg/mL (≈ 1.03 µM) | 16 µg/mL (≈ 10.3 µM) | 16 µg/mL (≈ 10.3 µM) | 2 µg/mL (≈ 1.29 µM) | – | 90.5% | 83.4% | – | – | – | – |
